Results reported in ChEMBL document CHEMBL1141234, “Synthesis and SAR of highly potent dual 5-HT1A and 5-HT1B antagonists as potential antidepressant drugs” (Bioorg Med Chem Lett, 2005).
The source made the active and inactive calls. The rule behind the calls is not given here.

Tests used:
[1] = target: T1, 5-hydroxytryptamine receptor 1A (Homo sapiens, UniProt P08908); test: Displacement of [35S]GTP-gamma-S from human recombinant 5HT1A receptor; format: functional
T1 sequence (P08908 whole entry): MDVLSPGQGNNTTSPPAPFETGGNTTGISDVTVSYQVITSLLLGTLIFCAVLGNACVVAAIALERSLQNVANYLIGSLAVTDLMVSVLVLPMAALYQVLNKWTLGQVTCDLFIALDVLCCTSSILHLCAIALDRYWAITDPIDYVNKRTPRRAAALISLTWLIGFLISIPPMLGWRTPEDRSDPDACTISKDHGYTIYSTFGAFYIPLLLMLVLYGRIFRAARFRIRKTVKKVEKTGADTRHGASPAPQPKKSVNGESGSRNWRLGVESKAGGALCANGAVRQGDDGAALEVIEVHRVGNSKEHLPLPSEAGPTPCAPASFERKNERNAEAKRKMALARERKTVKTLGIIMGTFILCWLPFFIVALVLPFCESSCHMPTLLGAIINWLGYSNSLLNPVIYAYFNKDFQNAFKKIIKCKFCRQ

D(3) dopamine receptor = D(3) dopamine receptor (Homo sapiens, UniProt P35462); test: Inhibitory activity against dopamine D3 receptor
[2] = target: T2, 5-hydroxytryptamine receptor 1A (Rattus norvegicus, UniProt P19327); test: Binding affinity for rat 5HT1A receptor
T2 sequence (P19327 whole entry): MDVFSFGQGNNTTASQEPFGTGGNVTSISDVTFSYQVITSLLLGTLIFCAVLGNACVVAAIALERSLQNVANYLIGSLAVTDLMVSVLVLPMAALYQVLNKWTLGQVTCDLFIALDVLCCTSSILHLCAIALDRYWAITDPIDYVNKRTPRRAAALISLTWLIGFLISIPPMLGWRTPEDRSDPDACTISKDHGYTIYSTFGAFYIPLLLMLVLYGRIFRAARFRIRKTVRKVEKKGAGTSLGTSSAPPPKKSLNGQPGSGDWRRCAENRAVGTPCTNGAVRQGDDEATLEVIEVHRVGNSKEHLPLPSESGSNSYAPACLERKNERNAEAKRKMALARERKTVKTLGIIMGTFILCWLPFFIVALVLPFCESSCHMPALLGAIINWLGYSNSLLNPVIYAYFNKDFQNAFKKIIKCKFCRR

[3] = target: T3, 5-hydroxytryptamine receptor 1A (Homo sapiens) (UniProt P08908); test: Functional activity in [35S]GTP-gamma-S assay for 5HT1A receptor
T3 sequence (whole entry): T1 sequence (P08908 whole entry)

[4] = target: 5-hydroxytryptamine receptor 7 (Homo sapiens, UniProt P34969); test: Inhibitory activity against 5HT7 receptor
[5] = target: T4, 5-hydroxytryptamine receptor 1B (Homo sapiens, UniProt P28222); test: Functional activity in FLIPR assay for 5HT1B receptor
[6] = target: T5, Adrenergic receptor alpha-1 (Homo sapiens, UniProt P35348+P25100+P35368); test: Inhibitory activity against Adrenergic alpha-1 receptor; format: protein assay
T5 sequence (P35348 whole entry): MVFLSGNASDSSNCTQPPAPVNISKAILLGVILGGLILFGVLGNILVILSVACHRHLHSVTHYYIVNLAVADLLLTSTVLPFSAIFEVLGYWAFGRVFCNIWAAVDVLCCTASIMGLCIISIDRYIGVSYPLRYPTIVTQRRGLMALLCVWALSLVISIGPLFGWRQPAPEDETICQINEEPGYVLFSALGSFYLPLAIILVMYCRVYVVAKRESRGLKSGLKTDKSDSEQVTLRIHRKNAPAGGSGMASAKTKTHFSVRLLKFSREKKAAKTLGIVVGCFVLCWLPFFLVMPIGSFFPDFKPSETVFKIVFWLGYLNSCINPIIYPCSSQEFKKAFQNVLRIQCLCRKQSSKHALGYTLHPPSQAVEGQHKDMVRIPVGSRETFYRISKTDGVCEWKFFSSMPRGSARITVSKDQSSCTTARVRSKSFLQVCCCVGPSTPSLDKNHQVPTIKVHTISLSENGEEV
T5 sequence (P25100 whole entry): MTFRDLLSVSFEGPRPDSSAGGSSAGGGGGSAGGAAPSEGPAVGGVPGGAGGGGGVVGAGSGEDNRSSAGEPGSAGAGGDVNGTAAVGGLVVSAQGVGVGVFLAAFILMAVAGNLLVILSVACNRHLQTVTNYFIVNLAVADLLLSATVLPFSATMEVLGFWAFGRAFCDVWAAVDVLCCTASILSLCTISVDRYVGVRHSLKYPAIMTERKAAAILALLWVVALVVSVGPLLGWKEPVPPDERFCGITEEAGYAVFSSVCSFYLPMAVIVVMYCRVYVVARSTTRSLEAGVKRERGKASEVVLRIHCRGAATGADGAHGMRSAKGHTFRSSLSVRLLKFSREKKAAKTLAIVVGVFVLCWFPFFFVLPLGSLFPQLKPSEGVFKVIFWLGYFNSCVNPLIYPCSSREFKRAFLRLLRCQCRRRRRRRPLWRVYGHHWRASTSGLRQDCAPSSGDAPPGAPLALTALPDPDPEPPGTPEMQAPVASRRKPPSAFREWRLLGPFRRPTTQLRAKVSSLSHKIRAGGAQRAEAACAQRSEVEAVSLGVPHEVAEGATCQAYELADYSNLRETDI
T5 sequence (P35368 whole entry): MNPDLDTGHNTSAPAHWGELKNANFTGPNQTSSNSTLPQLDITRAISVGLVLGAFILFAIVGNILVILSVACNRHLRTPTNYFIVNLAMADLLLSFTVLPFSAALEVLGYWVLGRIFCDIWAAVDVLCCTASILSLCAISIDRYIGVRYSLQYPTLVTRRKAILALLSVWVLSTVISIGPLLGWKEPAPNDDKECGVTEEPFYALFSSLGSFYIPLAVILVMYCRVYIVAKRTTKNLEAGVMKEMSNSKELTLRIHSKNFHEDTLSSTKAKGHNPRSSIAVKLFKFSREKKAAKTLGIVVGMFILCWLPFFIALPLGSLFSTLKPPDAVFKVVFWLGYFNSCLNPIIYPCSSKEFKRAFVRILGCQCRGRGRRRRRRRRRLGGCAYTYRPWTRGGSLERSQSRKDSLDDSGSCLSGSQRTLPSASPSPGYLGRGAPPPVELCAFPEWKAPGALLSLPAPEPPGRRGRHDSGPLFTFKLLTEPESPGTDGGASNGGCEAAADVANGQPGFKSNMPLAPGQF

[7] = target: T4, 5-hydroxytryptamine receptor 1B; test: Inhibitory activity against human recombinant 5HT1B receptor co-expressed with G-protein chimera Gqo5 in HEK293 cells by FLIPR; format: functional, cell-based
[8] = target: T3, 5-hydroxytryptamine receptor 1A (Homo sapiens); test: Intrinsic activity for 5HT1A receptor in [35S]GTP-gamma-S assay; format: functional
[9] = target: Sodium-dependent serotonin transporter (Homo sapiens) (UniProt P31645); test: Inhibitory activity against SERT upto 10 uM
[10] = target: T6, 5-hydroxytryptamine receptor 2C (Homo sapiens, UniProt P28335); test: Inhibitory activity against 5HT2C receptor
T6 sequence (P28335 whole entry): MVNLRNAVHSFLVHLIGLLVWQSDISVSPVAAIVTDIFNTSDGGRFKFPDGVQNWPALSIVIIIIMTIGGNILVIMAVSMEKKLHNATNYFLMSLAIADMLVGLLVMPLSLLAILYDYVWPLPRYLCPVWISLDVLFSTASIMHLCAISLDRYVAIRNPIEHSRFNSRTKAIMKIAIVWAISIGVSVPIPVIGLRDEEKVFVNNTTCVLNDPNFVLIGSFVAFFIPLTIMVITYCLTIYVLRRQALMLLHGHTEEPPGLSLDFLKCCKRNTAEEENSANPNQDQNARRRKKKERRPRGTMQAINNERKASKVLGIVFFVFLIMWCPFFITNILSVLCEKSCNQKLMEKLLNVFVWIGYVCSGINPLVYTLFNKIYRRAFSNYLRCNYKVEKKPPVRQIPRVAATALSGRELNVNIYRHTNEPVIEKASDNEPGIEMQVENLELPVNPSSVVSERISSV

[11] = target: T4, 5-hydroxytryptamine receptor 1B; test: Intrinsic activity for 5HT1B receptor in FLIPR assay; format: functional
[12] = target: 5-hydroxytryptamine receptor 5A (Homo sapiens, UniProt P47898); test: Inhibitory activity against 5HT5A receptor
[13] = target: 5-hydroxytryptamine receptor 1B (Rattus norvegicus, UniProt P28564); test: Binding affinity for rat 5HT1B receptor
[14] = target: Sodium-dependent noradrenaline transporter (Homo sapiens) (UniProt P23975); test: Inhibitory activity against NET upto 10 uM
[15] = target: Sodium-dependent dopamine transporter (Homo sapiens) (UniProt Q01959); test: Inhibitory activity against DAT upto 10 uM
Sequence of Sodium-dependent dopamine transporter (Homo sapiens) (Q01959 whole entry): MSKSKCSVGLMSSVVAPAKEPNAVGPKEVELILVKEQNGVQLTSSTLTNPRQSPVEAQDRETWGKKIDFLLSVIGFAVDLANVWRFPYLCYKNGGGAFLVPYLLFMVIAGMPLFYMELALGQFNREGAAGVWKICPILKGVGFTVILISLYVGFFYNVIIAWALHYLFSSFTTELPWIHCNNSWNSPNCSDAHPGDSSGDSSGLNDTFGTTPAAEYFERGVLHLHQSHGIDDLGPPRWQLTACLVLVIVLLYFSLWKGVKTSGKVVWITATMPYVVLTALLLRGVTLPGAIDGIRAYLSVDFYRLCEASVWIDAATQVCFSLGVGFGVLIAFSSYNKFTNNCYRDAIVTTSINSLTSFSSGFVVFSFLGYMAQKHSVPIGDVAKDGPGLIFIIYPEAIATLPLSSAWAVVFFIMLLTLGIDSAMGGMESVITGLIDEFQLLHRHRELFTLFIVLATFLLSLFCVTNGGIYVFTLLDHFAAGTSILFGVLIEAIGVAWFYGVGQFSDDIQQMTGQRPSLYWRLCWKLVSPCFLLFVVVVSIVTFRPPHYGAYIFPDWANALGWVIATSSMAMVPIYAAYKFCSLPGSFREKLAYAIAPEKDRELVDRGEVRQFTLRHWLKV

T4 sequence (P28222 whole entry): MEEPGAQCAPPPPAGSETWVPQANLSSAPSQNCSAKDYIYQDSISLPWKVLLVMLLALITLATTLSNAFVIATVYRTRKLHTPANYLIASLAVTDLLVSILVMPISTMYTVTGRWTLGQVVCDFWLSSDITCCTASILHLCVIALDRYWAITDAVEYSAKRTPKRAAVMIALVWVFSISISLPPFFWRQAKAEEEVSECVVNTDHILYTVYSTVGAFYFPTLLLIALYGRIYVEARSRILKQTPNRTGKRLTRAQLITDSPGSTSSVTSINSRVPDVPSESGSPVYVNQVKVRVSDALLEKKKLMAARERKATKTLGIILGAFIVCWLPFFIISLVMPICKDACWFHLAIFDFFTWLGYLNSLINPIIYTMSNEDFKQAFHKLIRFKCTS
Sequence of 5-hydroxytryptamine receptor 7 (P34969 whole entry): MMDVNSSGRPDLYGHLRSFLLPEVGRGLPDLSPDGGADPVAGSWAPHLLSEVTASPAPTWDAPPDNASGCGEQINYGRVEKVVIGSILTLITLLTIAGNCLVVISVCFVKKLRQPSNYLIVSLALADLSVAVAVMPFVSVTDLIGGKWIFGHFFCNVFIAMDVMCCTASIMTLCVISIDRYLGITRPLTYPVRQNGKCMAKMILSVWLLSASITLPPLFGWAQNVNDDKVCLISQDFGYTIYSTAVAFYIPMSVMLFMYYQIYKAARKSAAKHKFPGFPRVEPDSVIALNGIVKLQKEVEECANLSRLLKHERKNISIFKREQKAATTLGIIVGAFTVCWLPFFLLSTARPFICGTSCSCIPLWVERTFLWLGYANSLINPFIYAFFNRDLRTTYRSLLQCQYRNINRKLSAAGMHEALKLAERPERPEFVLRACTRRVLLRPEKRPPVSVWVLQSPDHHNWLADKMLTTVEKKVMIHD
Sequence of D(3) dopamine receptor (P35462 whole entry): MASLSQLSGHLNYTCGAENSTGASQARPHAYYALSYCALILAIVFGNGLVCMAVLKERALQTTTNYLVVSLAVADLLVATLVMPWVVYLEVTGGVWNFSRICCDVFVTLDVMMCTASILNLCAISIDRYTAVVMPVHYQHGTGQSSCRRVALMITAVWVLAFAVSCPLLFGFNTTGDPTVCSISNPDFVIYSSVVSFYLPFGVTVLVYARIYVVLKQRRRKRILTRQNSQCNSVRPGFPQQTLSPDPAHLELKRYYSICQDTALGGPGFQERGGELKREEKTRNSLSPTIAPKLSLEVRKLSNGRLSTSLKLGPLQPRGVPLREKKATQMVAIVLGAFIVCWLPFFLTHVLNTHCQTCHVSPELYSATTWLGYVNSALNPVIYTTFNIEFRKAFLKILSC
Sequence of Sodium-dependent serotonin transporter (Homo sapiens) (P31645 whole entry, looked up): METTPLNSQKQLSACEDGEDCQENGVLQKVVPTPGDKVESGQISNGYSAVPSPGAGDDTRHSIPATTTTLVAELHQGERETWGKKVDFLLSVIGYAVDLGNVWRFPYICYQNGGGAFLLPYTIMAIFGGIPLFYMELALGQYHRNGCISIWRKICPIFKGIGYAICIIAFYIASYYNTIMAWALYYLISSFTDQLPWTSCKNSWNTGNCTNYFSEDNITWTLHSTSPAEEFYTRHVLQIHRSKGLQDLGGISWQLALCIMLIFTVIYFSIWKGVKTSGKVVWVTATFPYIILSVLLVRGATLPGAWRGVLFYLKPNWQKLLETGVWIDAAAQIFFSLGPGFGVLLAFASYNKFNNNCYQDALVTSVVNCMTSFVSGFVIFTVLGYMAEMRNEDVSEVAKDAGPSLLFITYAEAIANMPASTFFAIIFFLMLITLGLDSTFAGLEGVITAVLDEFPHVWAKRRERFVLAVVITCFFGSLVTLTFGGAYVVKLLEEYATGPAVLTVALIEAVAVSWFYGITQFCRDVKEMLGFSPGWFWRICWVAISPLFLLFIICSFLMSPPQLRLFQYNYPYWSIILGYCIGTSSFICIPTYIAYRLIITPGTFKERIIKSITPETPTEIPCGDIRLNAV
Sequence of 5-hydroxytryptamine receptor 1B (Rattus norvegicus, UniProt P28564) (P28564 whole entry): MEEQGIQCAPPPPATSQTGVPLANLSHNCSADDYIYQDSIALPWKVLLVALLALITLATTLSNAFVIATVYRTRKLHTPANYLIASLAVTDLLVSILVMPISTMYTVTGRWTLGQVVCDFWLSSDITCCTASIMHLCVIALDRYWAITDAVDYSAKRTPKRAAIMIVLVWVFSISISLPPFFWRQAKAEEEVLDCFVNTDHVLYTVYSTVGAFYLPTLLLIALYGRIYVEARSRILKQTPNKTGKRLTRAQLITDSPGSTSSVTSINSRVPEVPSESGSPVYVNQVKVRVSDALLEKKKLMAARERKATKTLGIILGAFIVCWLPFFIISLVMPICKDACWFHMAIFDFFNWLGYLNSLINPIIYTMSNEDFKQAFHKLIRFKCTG
Sequence of 5-hydroxytryptamine receptor 5A (P47898 whole entry): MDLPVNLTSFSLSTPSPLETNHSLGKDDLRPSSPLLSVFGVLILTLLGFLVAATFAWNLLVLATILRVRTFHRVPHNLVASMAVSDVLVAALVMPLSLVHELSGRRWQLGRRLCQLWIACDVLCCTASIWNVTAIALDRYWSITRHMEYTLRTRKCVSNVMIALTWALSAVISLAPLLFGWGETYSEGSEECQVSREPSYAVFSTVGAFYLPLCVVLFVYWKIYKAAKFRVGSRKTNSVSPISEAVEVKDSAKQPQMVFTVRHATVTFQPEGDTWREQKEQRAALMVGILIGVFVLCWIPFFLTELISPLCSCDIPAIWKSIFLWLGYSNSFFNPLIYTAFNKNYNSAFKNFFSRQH
Sequence of Sodium-dependent noradrenaline transporter (Homo sapiens) (P23975 whole entry): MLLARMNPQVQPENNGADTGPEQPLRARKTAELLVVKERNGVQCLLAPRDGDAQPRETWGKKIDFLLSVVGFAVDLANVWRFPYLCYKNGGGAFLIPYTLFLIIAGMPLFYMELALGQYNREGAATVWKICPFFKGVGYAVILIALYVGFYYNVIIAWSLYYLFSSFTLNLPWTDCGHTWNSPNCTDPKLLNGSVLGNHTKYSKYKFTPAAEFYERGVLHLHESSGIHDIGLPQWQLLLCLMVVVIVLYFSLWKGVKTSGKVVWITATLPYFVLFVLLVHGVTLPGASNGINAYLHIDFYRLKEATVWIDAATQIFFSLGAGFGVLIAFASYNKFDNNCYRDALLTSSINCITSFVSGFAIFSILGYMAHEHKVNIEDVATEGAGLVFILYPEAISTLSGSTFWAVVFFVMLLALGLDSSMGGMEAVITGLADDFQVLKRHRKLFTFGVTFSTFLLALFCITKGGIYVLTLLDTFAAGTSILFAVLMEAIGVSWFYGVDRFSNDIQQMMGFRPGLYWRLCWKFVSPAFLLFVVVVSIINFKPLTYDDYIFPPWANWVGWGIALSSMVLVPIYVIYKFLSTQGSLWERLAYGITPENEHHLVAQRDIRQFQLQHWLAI

Row | SMILES | Ki [1] [nM] | Activity ([5]; filed as antagonist) | Ki [6] [nM] | Ki [7] [nM] | Emax [8] [%] | Emax [11] [%] | Activity ([3]; filed as partial agonist) | Activity ([5]; filed as partial agonist) | IC50 [1] [nM] | Ki (D(3) dopamine receptor) [nM] | Ki [2] [nM] | Activity ([3]; filed as antagonist) | Ki [4] [nM] | IC50 [7] [nM] | Activity [9] | Ki [10] [nM] | Ki [12] [nM] | Ki [13] [nM] | Activity [14] | Activity [15]
1 | CN1CCc2c(sc3ncn(CCN4CCN(c5ccnc6ccccc56)CC4)c(=O)c23)C1 | 6.5 | Antagonist | 118.1 | 9.7 | 6 | 9 | – | – | 1300 | 1.3 | 23 | Antagonist | 4480 | 85 | inactive | 5500 | > 1000 | 117 | inactive | inactive
2 | CN1CCc2c(sc3ncn(CCN4CCN(c5cccc6ccncc56)CC4)c(=O)c23)C1 | 0.3 | – | 1.2 | 0.1 | 10 | 20 | Partial agonist | Partial agonist | – | – | – | – | – | – | – | – | – | – | – | –
3 | COc1ccc2ccccc2c1N1CCN(CCn2cnc3sc4c(c3c2=O)CCN(C)C4)CC1 | 11.8 | – | 4.5 | 5.4 | 10 | 20 | Partial agonist | Partial agonist | – | – | – | – | – | – | – | – | – | – | – | –

The remaining molecules from weak to strong by Ki [1], led by results:

Row | Ki [1] [nM] | Activity ([5]; filed as antagonist) | Ki [6] [nM] | Ki [7] [nM] | Emax [8] [%] | Emax [11] [%] | Activity ([3]; filed as partial agonist) | Activity ([5]; filed as partial agonist) | SMILES | IC50 [1] [nM] | Ki (D(3) dopamine receptor) [nM] | Ki [2] [nM] | Activity ([3]; filed as antagonist) | Ki [4] [nM] | IC50 [7] [nM] | Activity [9] | Ki [10] [nM] | Ki [12] [nM] | Ki [13] [nM] | Activity [14] | Activity [15]
4 | 2.5 | Antagonist | 0.2 | 5.4 | 10 | < 20 | Partial agonist | – | CN1CCc2c(sc3ncn(CCN4CCN(c5ccccc5OCC(C)(C)C)CC4)c(=O)c23)C1 | – | – | – | – | – | – | – | – | – | – | – | –
5 | 2.5 | Antagonist | 0.2 | 4.9 | 10 | < 20 | Partial agonist | – | COc1cc(Cl)c(Cl)cc1N1CCN(CCn2cnc3sc4c(c3c2=O)CCN(C)C4)CC1 | – | – | – | – | – | – | – | – | – | – | – | –
